Measured values: patent publication US20210355105A1, “REGULATOR OF NITROGEN-CONTAINING HETEROAROMATIC DERIVATIVES, PREPARATION METHOD THEREFOR AND USE THEREOF” (Jiangsu Hansoh Pharmaceutical Group Co., Ltd., priority 2018, published 2021)

Tests used:
[1] = Pharmacokinetics assay in rats, oral administration; format: in vivo; settings: rat; male SD rats, oral 5 mg/kg, plasma
Description: SD rats were used as test animals.
5 g of hydroxyethyl cellulose (HEC, CMC-Na, viscosity: 800-1200 Cps) was dissolved in 1000 mL of purified water, and 10 g of Tween80 was added. The solution was mixed well to form a clear solution.
The solution was shaked well and subjected to ultrasound for 15 minutes to obtain a colorless and clear solution with a concentration of 0.5 mg/mL.
After an overnight fast, male SD rats (3 rats per group) were administrated orally with the test compounds at an administration dose of 5 mg/kg and an administration volume of 10 mL/kg.
0.2 mL of blood was taken from jugular vein before administration and at 0.5 hour, 1.0 hour, 2.0 hours, 4.0 hours, 6.0 hours, 8.0 hours and 24.0 hours after administration. The blood samples were stored in EDTA-2K tubes, and centrifuged for 6 minutes at 6000 rpm, at 4° C. to separate the blood plasma. The plasma samples were stored at −80° C. The rats were fed four hours after administration.

hERG potassium channel = biological target: T1, hERG potassium channel (Homo sapiens, UniProt Q12809); test: Inhibitory activity on hERG potassium channel (Qpatch, CHO-hERG cells); format: cell-based; settings: six concentrations up to 40 μM, read-out: hERG (inhibitory effect on hERG current)
T1 construct: expressed in transfected cells; host or cells: CHO-hERG cells
T1 sequence (Q12809 whole entry): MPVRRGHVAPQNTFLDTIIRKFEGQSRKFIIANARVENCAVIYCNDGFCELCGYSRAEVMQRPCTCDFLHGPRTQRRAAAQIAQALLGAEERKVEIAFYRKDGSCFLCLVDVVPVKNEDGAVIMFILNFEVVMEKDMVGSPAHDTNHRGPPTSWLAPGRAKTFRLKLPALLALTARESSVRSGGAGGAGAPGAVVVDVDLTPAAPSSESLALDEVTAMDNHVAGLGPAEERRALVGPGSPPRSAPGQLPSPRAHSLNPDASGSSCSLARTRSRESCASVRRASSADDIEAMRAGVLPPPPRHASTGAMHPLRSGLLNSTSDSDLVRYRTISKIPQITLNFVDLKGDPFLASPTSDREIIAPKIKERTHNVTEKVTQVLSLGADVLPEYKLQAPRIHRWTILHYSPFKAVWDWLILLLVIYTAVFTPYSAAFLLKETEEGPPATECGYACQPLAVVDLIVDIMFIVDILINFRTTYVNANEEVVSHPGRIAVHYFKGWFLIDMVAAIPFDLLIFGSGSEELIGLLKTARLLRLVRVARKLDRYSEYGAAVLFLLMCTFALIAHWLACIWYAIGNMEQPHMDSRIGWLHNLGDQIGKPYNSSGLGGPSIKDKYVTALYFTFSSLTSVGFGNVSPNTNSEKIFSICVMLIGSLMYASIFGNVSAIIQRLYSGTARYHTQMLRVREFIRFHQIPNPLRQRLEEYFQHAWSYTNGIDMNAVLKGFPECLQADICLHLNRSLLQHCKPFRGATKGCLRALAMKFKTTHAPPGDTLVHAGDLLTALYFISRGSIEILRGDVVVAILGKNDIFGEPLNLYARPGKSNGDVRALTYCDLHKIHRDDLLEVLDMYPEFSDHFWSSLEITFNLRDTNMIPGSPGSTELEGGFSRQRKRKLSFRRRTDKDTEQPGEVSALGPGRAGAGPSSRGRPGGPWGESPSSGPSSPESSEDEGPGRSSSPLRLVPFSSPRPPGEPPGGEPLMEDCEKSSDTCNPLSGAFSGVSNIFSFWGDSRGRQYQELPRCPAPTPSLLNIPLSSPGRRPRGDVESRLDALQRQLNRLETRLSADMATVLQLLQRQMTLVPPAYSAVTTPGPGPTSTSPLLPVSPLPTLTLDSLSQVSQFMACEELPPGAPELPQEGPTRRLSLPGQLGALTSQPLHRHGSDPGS
Description: 8.1.1 CHO-hERG cells were cultured in a 175 cm^2 culture flask. When the cells were grown to a density of 60 to 80%, the culture solution was removed, and the cells were washed once with 7 mL of PBS, and then 3 mL of Detachin was added for digestion of the cells.
8.1.2 After the digestion was complete, the cells were neutralized by adding 7 mL of the culture solution and then centrifuged. The supernatant was removed, and then 5 mL of the culture solution was added for resuspension to ensure a cell density of 2-5×10^6 cells/mL.
The single-cell high-impedance sealing and whole-cell pattern formation processes were both completed automatically by the Qpatch instrument. After the whole-cell recording pattern was obtained, the cells were clamped at −80 millivolts. A pre-voltage of −50 millivolts was applied for 50 milliseconds prior to the application of a depolarizing stimulus of +40 millivolts for 5 seconds, and then the cells were repolarized to −50 millivolts and maintained for 5 seconds, and then returned back to −80 millivolts. This voltage stimulation was applied every 15 seconds, and data were recorded for 2 minutes, and thereafter the extracellular fluid was administered and data were recorded for 5 minutes, and then the administration process was started. The compound was administered from the lowest test concentration, and 2.5 minutes were given for each test concentration. After all the concentrations of the compound were administered, […] Cisapride as a positive control compound was administered. At least three cells (n≥3) were tested for each concentration.
8.4.1 20 mM compound mother solution was diluted with the extracellular fluid. 5 μL of the 20 mM compound mother solution was diluted 500 times to 40 μM by adding 2495 μL of the extracellular fluid, and then 3-fold serial dilutions were performed sequentially in the extracellular fluid containing 0.2% DMSO to obtain a final concentration to be tested.
8.4.2 The highest test concentration was 40 μM, and there were six concentrations in total, i.e., 40, 13.33, 4.44, 1.48, 0.49, and […], respectively.
The experimental data were analyzed by XLFit software.

[2] = biological target: T2, SHP-2 full-length protein (Homo sapiens, UniProt Q06124); test: Inhibition of SHP-2 kinase activity (Homogeneous Full Length SHP-2 Assay Kit); format: biochemical; settings: relative IC50, full-length SHP-2 with activating peptide
T2 construct: purchased BPS Bioscience 79330
T2 sequence (Q06124 1-593): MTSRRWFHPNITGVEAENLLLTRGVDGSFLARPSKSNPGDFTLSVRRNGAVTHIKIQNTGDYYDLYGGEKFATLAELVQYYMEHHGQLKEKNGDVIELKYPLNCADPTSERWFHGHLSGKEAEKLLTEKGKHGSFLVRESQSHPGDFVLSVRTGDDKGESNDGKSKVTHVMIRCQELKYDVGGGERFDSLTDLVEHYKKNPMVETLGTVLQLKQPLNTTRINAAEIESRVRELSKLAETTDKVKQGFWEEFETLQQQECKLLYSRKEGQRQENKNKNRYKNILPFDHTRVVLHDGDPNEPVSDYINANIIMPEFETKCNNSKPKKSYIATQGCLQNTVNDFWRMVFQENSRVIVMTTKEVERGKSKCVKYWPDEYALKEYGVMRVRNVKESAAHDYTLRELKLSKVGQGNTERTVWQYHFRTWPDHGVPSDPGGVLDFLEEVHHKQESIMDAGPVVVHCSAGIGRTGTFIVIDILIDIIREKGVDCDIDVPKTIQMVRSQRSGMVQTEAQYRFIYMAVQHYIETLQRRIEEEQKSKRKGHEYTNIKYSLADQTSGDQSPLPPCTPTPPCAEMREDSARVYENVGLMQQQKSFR
Description: The objective of this test is to determine the inhibitory effect of the compounds on SHP-2 full-length protein allosteric activity.
Experimental method: Homogeneous Full Length SHP-2 Assay Kit (BPS Bioscience, #79330) was used to determine the in vitro SHP-2 activity. First, 18 μL of Master Mix was added to a 96-well low adsorption microplate (NUNC, #267342), i.e., the reaction buffer with a final concentration of 1× comprised 0.5 μM SHP-2 activating Peptide and 5 mM DTT. After centrifugation, 5 μL of test compound/DMSO was added to each well (the final DMSO content was 1%, V/V, the test compound was dissolved in DMSO to 1 mM, a three-fold serial dilution was carried out to obtain ten concentrations, the final concentration of the reaction system ranged from 1 μM to 0.05 nM). SHP-2 was diluted in the 1× reaction buffer to a final concentration of 0.06 nM, and the resulting solution was added to the reaction microplate (2 μL per well). Full activity control (compound only with DMSO) and full inhibition control (no SHP-2) were set up on the reaction plate. After centrifugation, the reaction mixture was incubated at room temperature for 60 minutes.
After completion of the incubation, 25 μL of Substrate solution, which comprised Substrate with a final concentration of 10 μM and 5 mM DTT, was added to each well. After centrifugation, the reaction mixture was incubated at room temperature for 30 minutes. After completion of the reaction, readings were measured on the Synergy H1 full-function microplate reader (BioTek) (excitation wavelength: 340 nm, emission wavelength: […], gain value: 75).
The IC50 value of the test compounds was calculated by fitting the percentage inhibition rate and data of ten concentrations to a four-parameter nonlinear logic formula with GraphPad prism.

Cc1nc(N2CCC3(CC2)Cc2ncsc2[C@H]3N)c(CO)nc1Sc1ccnc(N)c1Cl [Example 171, (S)-(6-((2-amino-3-chloropyridin-4-yl)thio)-3-(6-amino-4,6-dihydrospiro[cyclopenta[d]thiazole-5,4′-piperidin]-1′-yl)-5-methylpyrazin-2-yl)methanol]
AUC(0-inf) [1]: 1780 ng·h/mL
Cmax [1]: 189 ng/mL
MRT [1]: 5.78 h
Tmax [1]: 1 h
half-life [1]: 3.69 h
IC50 (hERG potassium channel): 18800 nM
IC50 [2]: 1.73 nM

Nc1nccc(Sc2cnc(N3CCC4(CC=C(C5CC5)[C@H]4N)CC3)cn2)c1Cl [Example 144, (S)-8-(5-((2-amino-3-chloropyridin-4-yl)thio)pyrazin-2-yl)-2-cyclopropyl-8-azaspiro[4.5]dec-2-en-1-amine]
AUC(0-inf) [1]: 3310 ng·h/mL
Cmax [1]: 247 ng/mL
MRT [1]: 9.24 h
Tmax [1]: 1 h
half-life [1]: 6.49 h
IC50 (hERG potassium channel): 2340 nM
IC50 [2]: 1.48 nM

Nc1nc(N2CCC3(CC2)Cc2ccccc2[C@H]3N)c(F)nc1Sc1ccnc(N)c1Cl [Example 179, (S)-1′-(6-amino-5-((2-amino-3-chloropyridin-4-yl)thio)-3-fluoropyrazin-2-yl)-1,3-dihydrospiro[indene-2,4′-piperidin]-1-amine]
AUC(0-inf) [1]: 3840 ng·h/mL
Cmax [1]: 201 ng/mL
MRT [1]: 15.2 h
Tmax [1]: 2 h
half-life [1]: 10.5 h
IC50 (hERG potassium channel): 4510 nM
IC50 [2]: 1.75 nM

Nc1nc(N2CCC3(CC2)Cc2ncsc2[C@H]3N)c(F)nc1Sc1ccnc(N)c1Cl [Example 181, (S)-1′-(6-amino-5-((2-amino-3-chloropyridin-4-yl)thio)-3-fluoropyrazin-2-yl)-4,6-dihydrospiro[cyclopenta[d]thiazole-5,4′-piperidin]-6-amine]
AUC(0-inf) [1]: 5890 ng·h/mL
Cmax [1]: 614 ng/mL
MRT [1]: 5.84 h
Tmax [1]: 2 h
half-life [1]: 3.55 h
IC50 (hERG potassium channel): 21900 nM
IC50 [2]: 3.07 nM
